Experiments:
[1] = tested on: chronic unpredictable stress (CUS) model in rats; assay: Autonomous movement in CUS model in rats; format: in vivo; details: 7 days
Experimental: (§1) The chronic unpredictable stress model is usually used as a depression model. The experimental method is as follows. Stimulation includes forced swimming (10° C., 6 min), tail clamping (1 cm from the tail tip, 1 min), water deprivation (24 h), fasting (24 h), isolated housing (24 h), tail suspension (1 h), immobility (2 h), high-speed horizontal oscillation (120 times/min, 1 h), foot shock for 45 minutes (mean 1 mA, time course 1 s, once/min). These stressors were randomly scheduled over a one-week period and repeated throughout the 23-day experiment. The non-stress control group was housed under normal conditions. Time: between 9:00 a.m. and 2:00 p.m. Since Day 15, the animals in each group were daily intragastrically administered with the subject medicament and double distilled water based on body weight (blank group and CUS model group) respectively, 60 minutes before the stress. […] Behavior and sleep electroencephalogram analyses were carried out on Day 22-23 of the stress. On Day 21, 60 minutes after the final administration, a sucrose solution intake test was carried out and sleep electroencephalogram was recorded simultaneously. On Day 22, EPM and forced swimming tests were carried out.

GSK-3β = GSK-3β (Homo sapiens, UniProt P49841); assay: GSK-3β activity assay (Z′-LYTE); format: biochemical; details: n = 3; read-out: Mean EC50 in the inhibition of GSK-3β activity
Experimental: The GSK-3β phosphorylation level was determined by using a Z′-LYTE assay (Life Technologies). The assay was performed in a 384-well plate. The wells of the testing plate were divided into blank control wells (without the enzyme), enzyme control wells (without the testing substance), and testing wells (with the enzyme and the testing substance at various concentrations). The inhibition rate of the testing substance is expressed as: inhibition %=(E−S)/(E−B)×100, wherein E is the average emission ratio of enzyme control wells; B is the average emission ratio of blank control wells; S is the emission ratio of the testing sample wells. The median effective concentration of each compound (EC50 μM) was calculated by using the resultant inhibition rate of each sample at various concentrations.

[2] = tested on: chronic unpredictable stress (CUS) model in rats; assay: Sucrose solution preference in CUS model in rats; format: in vivo; details: 7 days
Experimental: as §1

[3] = tested on: chronic unpredictable stress (CUS) model in rats; assay: Elevated plus-maze (EPM) anxiety test in CUS model in rats; format: in vivo; details: for anti-anxiety-like effect: doses of 30 and 60 mg/kg
Experimental: as §1

[4] = tested on: chronic unpredictable stress (CUS) model in rats; assay: Depression-like behaviors overall in CUS model in rats (forced swimming, sucrose preference, autonomous mobility); format: in vivo; details: doses of 30 and 60 mg/kg
Text: The chronic unpredictable stress model is usually used as a depression model. The experimental method is as follows. […] These stressors were randomly scheduled over a one-week period and repeated throughout the 23-day experiment. The non-stress control group was housed under normal conditions. Time: between 9:00 a.m. and 2:00 p.m. Since Day 15, the animals in each group were daily intragastrically administered with the subject medicament and double distilled water based on body weight (blank group and CUS model group) respectively, 60 minutes before the stress. Imipramine (intraperitoneally, IP) was adopted as a positive control. Behavior and sleep electroencephalogram analyses were carried out on Day 22-23 of the stress. On Day 21, 60 minutes after the final administration, a sucrose solution intake test was carried out and sleep electroencephalogram was recorded simultaneously. On Day 22, EPM and forced swimming tests were carried out. Result 1: […]

[5] = tested on: chronic unpredictable stress (CUS) model in rats; assay: Forced swimming test in chronic unpredictable stress (CUS) model in rats; format: in vivo; details: 7 days
Experimental: as §1

[6] = Serum AST and ALT in mice after 14 days of intragastric administration; format: in vivo; details: mouse, in vivo, 60 mg/kg/day
Experimental: Blood was collected from epicanthal, stood at room temperature for about 2 hours, and centrifuged for 12 minutes at 3000 r/min after coagulation. The serum was removed and centrifuged again. Alanine transaminase (ALT) and aspartate transaminase (AST) levels were determined

GSK-3β, sequence (P49841 whole entry): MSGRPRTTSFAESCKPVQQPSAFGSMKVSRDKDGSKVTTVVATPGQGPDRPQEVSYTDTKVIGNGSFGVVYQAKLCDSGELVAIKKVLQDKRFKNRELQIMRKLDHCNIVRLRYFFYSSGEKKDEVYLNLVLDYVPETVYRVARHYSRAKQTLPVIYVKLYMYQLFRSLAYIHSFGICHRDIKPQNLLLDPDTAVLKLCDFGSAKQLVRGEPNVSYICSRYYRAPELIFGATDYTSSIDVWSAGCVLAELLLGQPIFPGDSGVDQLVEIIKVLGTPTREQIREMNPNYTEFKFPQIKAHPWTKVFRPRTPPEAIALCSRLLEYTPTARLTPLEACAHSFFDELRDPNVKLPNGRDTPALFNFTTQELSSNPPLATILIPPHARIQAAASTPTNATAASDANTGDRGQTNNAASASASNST

| Compound | Autonomous movement Distance ([1]; 30 mg/kg intragastric daily) | Autonomous movement Speed ([1]; 30 mg/kg intragastric daily) | Autonomous movement Distance ([1]; 60 mg/kg intragastric daily) [mm] | Autonomous movement Speed ([1]; 60 mg/kg intragastric daily) [mm/second] | EC50 (GSK-3β) [nM] | Sucrose solution preference ([2]; 30 mg/kg intragastric daily) | Sucrose solution preference ([2]; 60 mg/kg intragastric daily) [%] | Percentage of entries into open arms relative to total entries into arms ([3]; 30 mg/kg intragastric daily) | Percentage of residence time in open arms ([3]; 30 mg/kg intragastric daily) | Percentage of entries into open arms relative to total entries into arms ([3]; 60 mg/kg intragastric daily) [%] | Percentage of residence time in open arms ([3]; 60 mg/kg intragastric daily) [%] | anti-anxiety-like effect [3] | amelioration effect on depression-like behaviors [4] | Forced swimming Immobility time ([5]; 30 mg/kg intragastric daily) [s] | Forced swimming Immobility time ([5]; 60 mg/kg intragastric daily) [s] | Autonomous movement Distance ([1]; 7.5 mg/kg intragastric daily) | Autonomous movement Speed ([1]; 7.5 mg/kg intragastric daily) | Autonomous movement Distance ([1]; 15 mg/kg intragastric daily) | Autonomous movement Speed ([1]; 15 mg/kg intragastric daily) | Sucrose solution preference ([2]; 7.5 mg/kg intragastric daily) [%] | also measured |
| --- | --- | --- | --- | --- | --- | --- | --- | --- | --- | --- | --- | --- | --- | --- | --- | --- | --- | --- | --- | --- | --- |
| COc1ccc2cc1Oc1ccc(cc1)CC1c3cc(c(OC)cc3CCN1C)Oc1c(OC)c(OC)c(OC)c3c1C(C2)N(C)CC3 (centres unmarked) [5,7-dimethoxy-fangchinoline, reference compound] | 1189.64 ± 315.84 mm | 3.97 ± 1.48 mm/second | 936.47 ± 366.32 | 3.12 ± 1.42 | > 10000 | 53.7 ± 4.8% | 55.3 ± 4.2 | 38.9 ± 1.8% | 43.2 ± 4.1% | 37.2 ± 1.4 | 42.8 ± 4.8 | no anti-anxiety-like effect | no amelioration effect |  |  |  |  |  |  |  |  |
| 12-(4-ethoxy)-butoxyberbamine [reference compound] | 1367.52 ± 683.88 mm | 4.56 ± 1.74 mm/second | 935.73 ± 586.51 | 3.12 ± 1.31 | > 10000 | 54.19 ± 4.45% | 53.27 ± 3.55 | 36.6 ± 1.7% | 40.1 ± 4.5% | 37.2 ± 1.3 | 39.2 ± 3.5 | no anti-anxiety-like effect | no amelioration effect | 179.5 ± 6.3 | 175.3 ± 8.4 |  |  |  |  |  |  |
| 12-acetoxyberbamine [reference compound] | 984.41 ± 542.67 mm | 3.28 ± 1.35 mm/second | 1135.49 ± 575.54 | 3.78 ± 1.46 | > 10000 | 54.29 ± 3.74% | 53.34 ± 3.04 | 38.2 ± 1.8% | 41.9 ± 3.7% | 36.8 ± 1.6 | 43.3 ± 3.4 | no anti-anxiety-like effect | no amelioration effect | 179.2 ± 6.6 | 169.9 ± 7.4 |  |  |  |  |  |  |
| CCCCOc1c(OC)cc2c3c1Oc1cc4c(cc1OC)CCN(C)C4Cc1ccc(cc1)Oc1cc(ccc1OC)CC3N(C)CC2 (centres unmarked) [Compound 7, 7-butoxy fangchinoline] | 11768.25 ± 903.41^##,$$ mm | 39.23 ± 5.36^##,$$ mm/second |  |  | 2330 | 86.3 ± 3.4^##,$$ % |  | 54.3 ± 5.6^##,$ % | 61.5 ± 3.0^##,$$ % |  |  |  |  |  |  | 8823.36 ± 673.14^##,$$ mm | 29.41 ± 2.64^##,$$ mm/second | 9586.43 ± 756.75^##,$$ mm | 31.95 ± 4.02^##,$$ mm/second | 70.7 ± 4.1 | Sucrose solution preference ([2]; 15 mg/kg intragastric daily): 87.1 ± 3.5 %; Percentage of entries into open arms relative to total entries into arms ([3]; 7.5 mg/kg intragastric daily): 43.4 ± 2.6 %; Percentage of residence time in open arms ([3]; 7.5 mg/kg intragastric daily): 54.7 ± 4.1^##,$$ %; Percentage of entries into open arms relative to total entries into arms ([3]; 15 mg/kg intragastric daily): 47.9 ± 4.0 %; Percentage of residence time in open arms ([3]; 15 mg/kg intragastric daily): 62.1 ± 3.4^##,$$ %; ALT [6]: 82.4 ± 17.9 U/L; AST [6]: 93.6 ± 17.8 U/L; AST/ALT [6]: 1.14 ± 0.20; melting point: 155 to 156 °C |
| COc1cc(Br)c2cc1Oc1ccc(cc1)CC1c3cc(c(OC)cc3CCN1C)Oc1c(OC)c(OC)c(Br)c3c1C(C2)N(C)CC3 (centres unmarked) [Compound 2, 5,14-dibromo-7-methoxy fangchinoline] | 12062.32 ± 903.42^##,$$ mm | 40.21 ± 5.36^##,$$ mm/second |  |  | 2010 | 88.5 ± 3.1^##,$$ % |  | 56.2 ± 5.3^##,$$ % | 64.5 ± 3.6^##,$$ % |  |  |  |  |  |  | 9031.41 ± 639.33^##,$$ mm | 30.10 ± 3.88^##,$$ mm/second | 10116.74 ± 746.48^##,$$ mm | 33.72 ± 4.02^##,$$ mm/second | 72.5 ± 3.0 | Sucrose solution preference ([2]; 15 mg/kg intragastric daily): 89.0 ± 4.6^##,$$ %; Percentage of entries into open arms relative to total entries into arms ([3]; 7.5 mg/kg intragastric daily): 45.1 ± 3.8 %; Percentage of residence time in open arms ([3]; 7.5 mg/kg intragastric daily): 56.5 ± 3.0^##,$$ %; Percentage of entries into open arms relative to total entries into arms ([3]; 15 mg/kg intragastric daily): 49.7 ± 4.0 %; Percentage of residence time in open arms ([3]; 15 mg/kg intragastric daily): 63.6 ± 4.1^##,$$ %; ALT [6]: 87.2 ± 24.7 U/L; AST [6]: 108.4 ± 17.4 U/L; AST/ALT [6]: 1.24 ± 0.26; melting point: 187 to 189 °C |

From patent publication US9169268B2, “Use of 7-alkoxy fangchinoline compounds in preventing, alleviating and/or treating depression” (Peking University, priority 2012, dated 2015)
